Test results reported in patent US20080269337A1, “Method for the enhancing biocidal activity” (priority 2007, published 2008).

Key:
[1] = system: aqueous industrial systems; details: U.S. Pat. Nos. 5,607,597 and 5,736,056; cited from earlier work
[2] = system: B. subtilus (ATCC23059); assay: B. subtilus in synthetic medium, serial dilution and plating; assay type: cell-based
Procedure: By definition a potentiator compound will not, by itself, kill or inhibit the bacterial population. The non-toxicity of bistridecylsulfosuccinate to B. subtilus is illustrated in Table 4. One ml of bacteria from an overnight culture was used to innocculate shake flasks containing 50 mls of fresh synthetic medium. The synthetic medium (as described previously) was augmented with increasing amounts of bistridecylsulfosuccinate. Serial dilution and plating was carried out to compare the efficacy of each treatment. The culture of B. subtilus was grown in the presence of 0, 5, 10, and 20 mg/l bistridecylsulfosuccinate (Btdss). Plating was carried out at 2.5 hours and 5 hours of incubation. […] The control had no treatment.

[3] = system: B. cereus ATCC14579; assay: B. cereus in synthetic medium, serial dilution and plating; assay type: cell-based; details: 20 mg/l bistridecylsulfosuccinate with 1 or 2 mg/l isothiazolinone
Excerpt: The spore forming bacterium B. cereus is of particular concern because of its pathogenic properties. Most incidents of food poisoning attributed to the genus Bacillus are caused by B. cereus. B. cereus is a common concern in production of dairy products. There is particular concern about this organism in powered milk based products for infants. This is a concern not only to producers of these goods but also to the manufacturers of packaging and containers for such products. […] A culture of B. cereus ATCC14579 was treated with isothiazolinone alone and isothiazolinone with bistridecylsulfosuccinate One ml of bacteria from an overnight culture was used to innocculate shake flasks containing 50 mls of fresh synthetic medium. The synthetic medium (as described previously) was dosed with isothiazolinone at one or two mg/l concentration; or isothiazolinone in conjunction with 20 mg/l bistridecylsulfosuccinate. Cultures were maintained shaking at 37° C. then carried through serial dilution and plated at 3 and 5 hour time points.

In the case of `CCCCC(CC)COC(=O)CC(C(=O)OCC(CC)CCCC)S(=O)(=O)O` (stereo not drawn) [dioctyl, dioctylsulfosuccinate], the “Effect on efficacy of isothiazolinone” value [1] is listed as “enhance the efficacy of isothiazolinone”.

With bistridecylsulfosuccinate [Btdss] the “B. subtilus count in synthetic medium” value ([2]; 5 mg/l Btdss alone, 2.4 Hour) was 3.40 × 10^6, the “B. subtilus count in synthetic medium” value ([2]; 5 mg/l Btdss alone, 5 Hour) was 4.00 × 10^6 and the “B. subtilus count in synthetic medium” value ([2]; 10 mg/l Btdss alone, 2.4 Hour) was 2.8 × 10^6. The “B. subtilus count in synthetic medium” value ([2]; 10 mg/l Btdss alone, 5 Hour) was 3.90 × 10^7, the “B. subtilus count in synthetic medium” value ([2]; 20 mg/l Btdss alone, 2.4 Hour) was 3.00 × 10^6 and the “B. subtilus count in synthetic medium” value ([2]; 20 mg/l Btdss alone, 5 Hour) was 3.6 × 10^7. The “Growth of treated cultures relative to the untreated control” value ([2]; 5, 10, and 20 mg/l bistridecylsulfosuccinate alone) was “increased growth relative to the untreated control”, the “Toxicity to B. subtilus” value ([2]; alone, at concentrations at least as high as 20 mg/l) was “non-toxic” and the “Effect on efficacy of isothiazolinone against B. cereus” value [3] was “greatly enhanced the efficacy of isothiazolinone”. The “Effect on efficacy of isothiazolinone” value [1] was “loss of efficacy”.

For dinonylsulfosuccinates, the “Effect on efficacy of isothiazolinone” value [1] is listed as “enhance the efficacy of isothiazolinone”.
